In ChEMBL document CHEMBL4800729 (2021):

Legend:
[1] = molecular target: Activin receptor type-1B (Homo sapiens) (UniProt P36896); test: Alk4(h) Millipore kinase panel; conditions: Compound concentration 1.0 uM
[2] = molecular target: Serine/threonine-protein kinase A-Raf (Homo sapiens) (UniProt P10398); test: A_Raf(h) Millipore kinase panel; conditions: Compound concentration 1.0 uM
ATR/ATRIP (Homo sapiens) = ATR/ATRIP (Homo sapiens) (UniProt Q13535+Q8WXE1); test: ATR/ATRIP(h) Millipore kinase panel; assay type: protein-complex assay; conditions: Compound concentration 1.0 uM
[3] = molecular target: Aurora kinase C (Homo sapiens) (UniProt Q9UQB9); test: Aurora_C(h) Millipore kinase panel; conditions: Compound concentration 1.0 uM
[4] = molecular target: Serine/threonine-protein kinase BRSK1 (Homo sapiens) (UniProt Q8TDC3); test: BrSK1(h) Millipore kinase panel; conditions: Compound concentration 1.0 uM
[5] = molecular target: Calcium/calmodulin-dependent protein kinase type 1B (Homo sapiens) (UniProt Q6P2M8); test: CaMKIbeta(h) Millipore kinase panel; conditions: Compound concentration 1.0 uM
[6] = molecular target: Calcium/calmodulin-dependent protein kinase type IV (Homo sapiens) (UniProt Q16566); test: CaMKIV(h) Millipore kinase panel; conditions: Compound concentration 1.0 uM
[7] = molecular target: Serine/threonine-protein kinase Chk1 (Homo sapiens) (UniProt O14757); test: CHK1(h) Millipore kinase panel; conditions: Compound concentration 1.0 uM
[8] = molecular target: RAF proto-oncogene serine/threonine-protein kinase (Homo sapiens) (UniProt P04049); test: c-RAF(h) Millipore kinase panel; conditions: Compound concentration 1.0 uM
[9] = molecular target: Serine/threonine-protein kinase DCLK1 (Homo sapiens) (UniProt O15075); test: DCAMKL1(h) Millipore kinase panel; conditions: Compound concentration 1.0 uM
[10] = molecular target: Epithelial discoidin domain-containing receptor 1 (Homo sapiens) (UniProt Q08345); test: DDR1(h) Millipore kinase panel; conditions: Compound concentration 1.0 uM
[11] = molecular target: Serine/threonine-protein kinase 17A (Homo sapiens) (UniProt Q9UEE5); test: DRAK1(h) Millipore kinase panel; conditions: Compound concentration 1.0 uM
[12] = molecular target: Ephrin type-A receptor 5 (Homo sapiens) (UniProt P54756); test: EphA5(h) Millipore kinase panel; conditions: Compound concentration 1.0 uM
[13] = molecular target: Ephrin type-B receptor 4 (Homo sapiens) (UniProt P54760); test: EphB4(h) Millipore kinase panel; conditions: Compound concentration 1.0 uM
[14] = molecular target: Vascular endothelial growth factor receptor 3 (Homo sapiens) (UniProt P35916); test: Flt4(h) Millipore kinase panel; conditions: Compound concentration 1.0 uM
[15] = molecular target: G protein-coupled receptor kinase 6 (Homo sapiens) (UniProt P43250); test: GRK6(h) Millipore kinase panel; conditions: Compound concentration 1.0 uM
[16] = molecular target: Glycogen synthase kinase-3 beta (Homo sapiens) (UniProt P49841); test: GSK3beta(h) Millipore kinase panel; conditions: Compound concentration 1.0 uM
[17] = molecular target: Inhibitor of nuclear factor kappa-B kinase subunit beta (Homo sapiens) (UniProt O14920); test: IKKbeta(h) Millipore kinase panel; conditions: Compound concentration 1.0 uM
[18] = molecular target: Vascular endothelial growth factor receptor 2 (Homo sapiens) (UniProt P35968); test: KDR(h) Millipore kinase panel; conditions: Compound concentration 1.0 uM
[19] = molecular target: LIM domain kinase 1 (Homo sapiens) (UniProt P53667); test: LIMK1(h) Millipore kinase panel; conditions: Compound concentration 1.0 uM
[20] = molecular target: Leucine-rich repeat serine/threonine-protein kinase 2 (Homo sapiens) (UniProt Q5S007); test: LRRK2(h) Millipore kinase panel; conditions: Compound concentration 1.0 uM
[21] = molecular target: Serine/threonine-protein kinase MAK (Homo sapiens) (UniProt P20794); test: MAK(h) Millipore kinase panel; conditions: Compound concentration 1.0 uM
[22] = molecular target: Mitogen-activated protein kinase kinase kinase 21 (Homo sapiens) (UniProt Q5TCX8); test: MLK4(h) Millipore kinase panel; conditions: Compound concentration 1.0 uM
[23] = molecular target: Serine/threonine-protein kinase mTOR (Homo sapiens) (UniProt P42345); test: mTOR(h) Millipore kinase panel; conditions: Compound concentration 1.0 uM
[24] = molecular target: Serine/threonine-protein kinase Nek9 (Homo sapiens) (UniProt Q8TD19); test: NEK9(h) Millipore kinase panel; conditions: Compound concentration 1.0 uM
[25] = molecular target: Ribosomal protein S6 kinase beta-1 (Homo sapiens) (UniProt P23443); test: p70S6K(h) Millipore kinase panel; conditions: Compound concentration 1.0 uM
[26] = molecular target: Serine/threonine-protein kinase PAK 2 (Homo sapiens) (UniProt Q13177); test: PAK2(h) Millipore kinase panel; conditions: Compound concentration 1.0 uM
[27] = molecular target: Platelet-derived growth factor receptor beta (Homo sapiens) (UniProt P09619); test: PDGFRbeta(h) Millipore kinase panel; conditions: Compound concentration 1.0 uM
[28] = molecular target: Serine/threonine-protein kinase pim-3 (Homo sapiens) (UniProt Q86V86); test: Pim-3(h) Millipore kinase panel; conditions: Compound concentration 1.0 uM
[29] = molecular target: Protein kinase C alpha type (Homo sapiens) (UniProt P17252); test: PKCalpha(h) Millipore kinase panel; conditions: Compound concentration 1.0 uM
[30] = molecular target: Protein kinase C beta type (Homo sapiens) (UniProt P05771); test: PKCbetaI(h) Millipore kinase panel; conditions: Compound concentration 1.0 uM
[31] = molecular target: Mitogen-activated protein kinase 14 (Homo sapiens) (UniProt Q16539); test: SAPK2a(h) Millipore kinase panel; conditions: Compound concentration 1.0 uM
[32] = molecular target: Serine/threonine-protein kinase 33 (Homo sapiens) (UniProt Q9BYT3); test: STK33(h) Millipore kinase panel; conditions: Compound concentration 1.0 uM
[33] = molecular target: Serine/threonine-protein kinase TAO3 (Homo sapiens) (UniProt Q9H2K8); test: TAO3(h) Millipore kinase panel; conditions: Compound concentration 1.0 uM
[34] = molecular target: Angiopoietin-1 receptor (Homo sapiens) (UniProt Q02763); test: Tie2(h) Millipore kinase panel; conditions: Compound concentration 1.0 uM
[35] = molecular target: Testis-specific serine/threonine-protein kinase 4 (Homo sapiens) (UniProt Q6SA08); test: TSSK4(h) Millipore kinase panel; conditions: Compound concentration 1.0 uM
[36] = molecular target: Serine/threonine-protein kinase WNK3 (Homo sapiens) (UniProt Q9BYP7); test: WNK3(h) Millipore kinase panel; conditions: Compound concentration 1.0 uM
[37] = molecular target: Mitogen-activated protein kinase 1 (Homo sapiens) (UniProt P28482); test: MAPK2(h) Millipore kinase panel; conditions: Compound concentration 1.0 uM
[38] = molecular target: PI3K p110 beta/p85 alpha (Homo sapiens) (UniProt P27986+P42338); test: PI3 Kinase (p110b/p85a)(h) Millipore kinase panel; assay type: protein-complex assay; conditions: Compound concentration 1.0 uM
D(1A) dopamine receptor [39] = molecular target: T1, D(1A) dopamine receptor (Homo sapiens, UniProt P21728); conditions: Compound concentration 10.0 uM
[40] = molecular target: Mu-type opioid receptor (Homo sapiens) (UniProt P35372); conditions: Compound concentration 10.0 uM
[41] = molecular target: Kappa-type opioid receptor (Homo sapiens) (UniProt P41145); conditions: Compound concentration 10.0 uM
D(1A) dopamine receptor [42] = molecular target: T1, D(1A) dopamine receptor; conditions: Compound concentration 10.0 uM; remark: listed apart in the source
[43] = molecular target: Histamine H3 receptor (Homo sapiens) (UniProt Q9Y5N1); conditions: Compound concentration 10.0 uM
[44] = molecular target: Acetylcholinesterase (Homo sapiens) (UniProt P22303); conditions: Compound concentration 10.0 uM
[45] = molecular target: cGMP-specific 3',5'-cyclic phosphodiesterase (Homo sapiens) (UniProt O76074); conditions: Compound concentration 10.0 uM
[46] = molecular target: D(2) dopamine receptor (Homo sapiens) (UniProt P14416); conditions: Compound concentration 10.0 uM
[47] = molecular target: Cannabinoid receptor 2 (Homo sapiens) (UniProt P34972); conditions: Compound concentration 10.0 uM
[48] = molecular target: B1 bradykinin receptor (Homo sapiens) (UniProt P46663); conditions: Compound concentration 10.0 uM
[49] = molecular target: Activin receptor type-2A (Homo sapiens) (UniProt P27037); test: ACTR2(h) Millipore kinase panel; conditions: Compound concentration 1.0 uM

## CC[C@@H](Nc1c(C#N)c(-c2ccc(-c3cccc(C)c3F)cc2)nc2cnccc12)C(=O)O [BAY-091]
[1]
  inhibition: -3.68%
[2]
  inhibition: 2.41%
ATR/ATRIP (Homo sapiens)
  inhibition: 16.2%
[3]
  inhibition: 4.64%
[4]
  inhibition: -4.39%
[5]
  inhibition: -7.99%
[6]
  inhibition: 7.26%
[7]
  inhibition: 4.56%
[8]
  inhibition: 36%
[9]
  inhibition: 13%
[10]
  inhibition: 11.7%
[11]
  inhibition: 9.65%
[12]
  inhibition: 15.8%
[13]
  inhibition: 11.8%
[14]
  inhibition: 12.9%
[15]
  inhibition: 0.16%
[16]
  inhibition: -0.05%
[17]
  inhibition: 2.85%
[18]
  inhibition: 50.1%
[19]
  inhibition: 8.64%
[20]
  inhibition: 12.9%
[21]
  inhibition: 9.23%
[22]
  inhibition: 9.6%
[23]
  inhibition: 14.8%
[24]
  inhibition: 6.61%
[25]
  inhibition: 4.3%
[26]
  inhibition: 24.9%
[27]
  inhibition: 9.33%
[28]
  inhibition: 1.67%
[29]
  inhibition: 16.2%
[30]
  inhibition: 16.5%
[31]
  inhibition: 2.76%
[32]
  inhibition: 2.82%
[33]
  inhibition: 2.25%
[34]
  inhibition: 12.8%
[35]
  inhibition: 24%
[36]
  inhibition: -1.89%
[37]
  inhibition: 7.74%
[38]
  inhibition: 0.43%
D(1A) dopamine receptor [39]
  inhibition: -3.98%
[40]
  inhibition: 1.43%
[41]
  inhibition: 0.48%
D(1A) dopamine receptor [42]
  inhibition: 15%
[43]
  inhibition: 3%
[44]
  inhibition: 27%
[45]
  inhibition: 62%
[46]
  inhibition: 8%
[47]
  inhibition: 1%
[48]
  inhibition: 0%
[49]
  inhibition: 1.17%
